Here are results for 9 compounds from patent US11993594B2, “IRAK inhibitors and method for making and using” (Rigel Pharmaceuticals, Inc., priority 2016, dated 2024).

Usually EC50 stands for the concentration at which the effect is half-maximal.

Like-named read-outs stand apart in the source and are kept apart here.

The subject of test [1] is LPS induced IL-23 (p19/p40) in DC cells. The experiment in a line: IL23-p19 ELISA, dendritic (DC) cells differentiated from human PBMC, LPS stimulated. Type of test: cell-based. To be noted: LPS 1 μg/ml, 18 hours, 10 pt. The protocol: Compound Screening Using DC Cells
Human PBMC cells (400 million) obtained from the vendor were transferred into a T-175 flask containing 15 ml RPMI media (10% FBS) and incubate for 2 hours at 37° C. After 2 hours, the media including floating cells was aspirated out carefully and 12 ml of fresh RPMI media (10% FBS) containing GMCSF (100 ng/ml) and IL4 (20 ng/ml) was added, and the flask was kept in a 37° C. incubator for 7 days.
After 3 days, fresh GMCSF (100 ng/ml) and IL4 (20 ng/ml) were added to the flask and the incubation continued. After 7 days, the fully differentiated cells were harvested by spinning down (1200 rpm/5 min) and aspirating the media. The cells were suspended in fresh RPMI media (10% FBS) containing 50 ng/ml IFNγ (1000 U/ml) and then plated (50K/well in 100 μl) onto a white clear bottom 96 well plate and left in a 37° C. incubator for 24 hours.
After 24 hours incubation, 100 μl of RPMI media was added containing 2× concentrated test compound per well to the above cell-culture media (final concentration becomes 1×) and the plates were pre-incubated for 1 hour at 37° C. before stimulating with LPS.
After 1 hour compound pre-incubation, 10 μl per well of 20× concentrated LPS solution in RPMI media was added to give a final concentration of 1 μg/ml. The mixture was shaken and incubated the plates at 37° C. for an additional 18 hours.
155 μl of the supernatant was harvested from each well carefully (without the tip touching the bottom of the well) and to the remaining 50 μl/well of the cell culture plate was added 50 μl of Cell Titer Glo reagent. The mixture was incubated for 1-2 minutes on a shaker and the plate was read for luminescence intensity to determine the compound cytotoxicity. The cell culture supernatant collected above was used to carry out IL23 ELISA (65 μl—Supernatant) and IL10 ELISA (90 μl—Supernatant) as described below.
Human IL-23 (p19/p40) ELISA Protocol (e-Biosciences)
To 10.5 ml PBS add 50 μl of anti-IL23 (p19) was added capture antibody (2.5 μg/ml). The mixture was mixed well and 100 μl of the coating solution was added to each well of the 96 well white plates from Pierce. The wells were covered and incubated overnight at 4° C.
The anti-IL23 (p19)-antibody-coated plates were washed 2× using TBST (use plate washer) and blocked using 200 μl of 0.5% Casein for 1.5 to 2 hours at room temperature with shaking.
The plates were washed 2× using TBST and the supernatant was transferred (65 μl/well) to the above pre-blocked/IL23(p19)-antibody-coated 96 well plate, and incubated at room temperature for 1.5 hours with shaking.
The plates were washed 4× using TBST (plate washer) and 100 μl/well detection antibody solution prepared from 2 μl of biotin labeled anti-IL-12 (p40/p70) antibody in 11 ml 1% BSA/PBS solution (1-5000 dilution) was added. The plates were incubated for 1 hour with shaking at Room temperature.
Again, the plates were washed 4× with TBST and 100 μl of HRP labeled Streptavidin (R&D Systems) solution (10 μl/10 ml 1% BSA solution) was added, and the plates were incubated at room temperature for another 45 minutes with shaking.
After 45 minutes, the plates were washed with TBST 4× and 100 μl/well Super Signal ELISA Pico Chemiluminescent Substrate from Pierce (3.5 ml A+3.5 ml B+3.5 ml MQ water) was added. The plates were shaken for 1-2 minutes then read on a plate reader. […]
Background: ELISA stands for enzyme-linked immunosorbent assay.

Test [2] relates to LPS Induced IL23p19 in THP-1 Cells. Kind of test: LPS Induced IL23p19 in THP-1 Cells (with IFNγ Primed) Assay. Type of test: cell-based, human. Particulars: THP-1 cells primed with IFNγ 50 ng/mL, LPS 1 ug/mL, 18 hours, 10 pt, read-out: IL23-p19 ELISA, THP1-IFNγ, LPS, 10 pt EC50. The source says: LPS Induced IL23p19 in THP-1 Cells (with IFNγ Primed) Assay
THP-1 Cells (ATCC, Cat #TIB-202), Dimethyl Sulfoxide (DMSO) (Sigma-Aldrich, Cat #D2650), RPMI 1640 (Cellgro, Cat #10-040-CM), Fetal Bovine Serum (Sigma, Cat #F4135), Albumin From Bovine Serum (BSA) (Sigma-Aldrich, Cat #A7906), LPS (Serotype K-235, Sigma, Product Number L 2143), IFNγ (Peprotech, Cat #300-02) Capture antibody: Human IL-23p19 ELISA (e-Bioscience, Cat. #14-7238-85), Detection antibody: Primary Mouse Biotinylated anti-human IL-12(p40/p70) (e-Bioscience, Cat. #13-7129-85), Secondary HRP-conjugated Streptavidin (R&D Systems, Cat #DY998), 1×PBST Washing Buffer (PBS-Tween tablet) (VWR International, Cat #80058-558), ELISA Blocking Buffer (PBS with 1% BSA), ELISA Dilution Buffer (PBS with 1% BSA), 384 Well Flat-Bottom, MaxiSorp Black Immuno Plates (Thermo Scientific, Cat #12-565-346), 384 Well Flat-Bottom, White Tissue Culture Plates (Thermo Scientific, Cat #12-565-343), Super Signal ELISA Pico Chemiluminescent Substrate (Thermo Scientific, Cat #37070), Cell Titer Glo reagent (Promega, Cat #G7573), Positive control, IKK2VI inhibitor (Calbiochem, Cat #401483), AquaMax 4000 plate washer (Molecular Devices), Luminometer, Wallac Victor2 1420 Multilabel Counter.
On day 1, 50K/well THP-1 cells were seeded and primed with IFNγ (50 ng/mL) in 384-well plates for about 18 hours in RPMI media with 10% FBS. On day 2, the compound was serially diluted in DMSO from 5 mM in 3-fold dilutions, and then diluted 1:125 in RPMI media with 10% FBS. 50 μL/well 2× compound was added to 50 μL/well THP-1 cells (with IFNγ primed) in duplicate in 384 well tissue culture plates. The cells were pre-incubated with compound for 1 hour at 37° C., 5% CO2 before addition of 10 μL/well 11×LPS to give a final concentration of 1 ug/mL LPS. Day 3, after stimulation for 18 hours at 37° C., 5% CO2, the assay plate was centrifuged and 70 μL/well supernatant was harvested. IL-23p19 protein in 70 µL/well of supernatant was measured by sandwich ELISA, and 25 μl/well Cell Titer Glo reagent was added to the remaining cells to measure compound toxicity.
Human IL-23p19 Sandwich ELISA:
Maxisorp immuno ELISA plates were pre-coated with 25 μL/well of anti-IL-23p19 capture antibody (2.5 ug/mL) in PBS overnight at room temperature. After washing with 1×PBST, the plates were blocked using 100 μL/well of 1% BSA in PBS for 2 hours at room temperature. The plates were washed three times with 1×PBST and 70 μL/well supernatant were added. The plates were incubated at room temperature for 2 hours with shaking and washed three times with 1×PBST. 25 μL/well of biotin labeled anti-IL-12(p40/p70) detection antibody (100 ng/mL) in PBS with 1% BSA was added and the plates were incubated at room temperature for 2 hours with shaking. After washing three times with 1×PBST, 25 μL/well of streptavidin-HRP (1:200) in PBS with 1% BSA was added and the plates were incubated at room temperature for 20 minutes with shaking. The plates were washed three times with 1×PBST and 25 μL/well of Super Signal ELISA Pico Chemiluminescent Substrate were added. The plates were read with a luminometer, and the chemiluminescence values were entered into Athena (Rigel) for curve fitting, EC50 calculation, and database storage. […]

Consider `CCOC1CCC(n2cc(NC(=O)c3coc(-c4cnn(COP(=O)(O)O)c4)n3)c(-c3nc(F)ccc3F)n2)CC1` (stereo not shown) [Compound I-8, sodium (4-(4-((3-(3,6-difluoropyridin-2-yl)-1-((1r,4r)-4-ethoxycyclohexyl)-1H-pyrazol-4-yl)carbamoyl)oxazol-2-yl)-1H-pyrazol-1-yl)methyl phosphate], for which the EC50 came to 7640 nM in test [1] (Table 1, IFNγ 50 ng/ml); 7640 nM in test [1] (Table 2, IFNγ 50 ng/ml); 187 nM in test [2] (Table 1); 187 nM in test [2] (Table 2).

On to `CCO[C@H]1CC[C@H](n2cc(NC(=O)c3coc(-c4cn[nH]c4)n3)c(-c3nc(F)ccc3F)n2)CC1` [Compound I-9, N-(3-(3,6-difluoropyridin-2-yl)-1-((1r,4r)-4-ethoxycyclohexyl)-1H-pyrazol-4-yl)-2-(1H-pyrazol-4-yl)oxazole-4-carboxamide], for which the EC50 in test [1] (Table 1, IFNγ 50 ng/ml) was 172 nM; in test [1] (Table 2, IFNγ 50 ng/ml) it was 172 nM; in test [2] (Table 1) it was 22.8 nM; in test [2] (Table 2) it was 22.8 nM.

With `CCO[C@H]1C[C@@H](n2cc(NC(=O)c3coc(-c4cn[nH]c4)n3)c(-c3nc(F)ccc3F)n2)C1` [Compound I-10, N-(3-(3,6-difluoropyridin-2-yl)-1-((1s,3s)-3-ethoxycyclobutyl)-1H-pyrazol-4-yl)-2-(1H-pyrazol-4-yl)oxazole-4-carboxamide], the EC50 is 30.9 nM in test [1] (Table 1, IFNγ 50 ng/ml); 30.9 nM in test [1] (Table 2, IFNγ 50 ng/ml); 69.9 nM in test [2] (Table 1); 69.9 nM in test [2] (Table 2).

As for `O=C(Nc1cn([C@H]2CC[C@H](O)CC2)nc1-c1nc(F)ccc1F)c1coc(-c2cn[nH]c2)n1` [Compound I-11, N-(3-(3,6-difluoropyridin-2-yl)-1-((1r,4r)-4-hydroxycyclohexyl)-1H-pyrazol-4-yl)-2-(1H-pyrazol-4-yl)oxazole-4-carboxamide], the EC50 was 179 nM in test [1] (Table 1, IFNγ 50 ng/ml); 179 nM in test [1] (Table 2, IFNγ 50 ng/ml); 25.4 nM in test [2] (Table 1); 25.4 nM in test [2] (Table 2).

In the case of `CCO[C@H]1CC[C@H](n2cc(NC(=O)c3coc(-c4cnn(COP(=O)(O)O)c4)n3)c(-c3nc(F)ccc3F)n2)CC1` [Compound I-12, (4-(4-((3-(3,6-difluoropyridin-2-yl)-1-((1r,4r)-4-ethoxycyclohexyl)-1H-pyrazol-4-yl)carbamoyl)oxazol-2-yl)-1H-pyrazol-1-yl)methyl dihydrogen phosphate], the EC50 in test [1] (Table 1, IFNγ 50 ng/ml) is 2400 nM; in test [1] (Table 2, IFNγ 50 ng/ml), 2400 nM; in test [2] (Table 1) it was 177 nM; in test [2] (Table 2) it was 177 nM.

In the case of `CCO[C@H]1CC[C@H](n2cc(NC(=O)c3coc(-c4cn[nH]c4)n3)c(-c3ncc(F)cc3F)n2)CC1` [Compound I-13, N-(3-(3,5-difluoropyridin-2-yl)-1-((1r,4r)-4-ethoxycyclohexyl)-1H-pyrazol-4-yl)-2-(1H-pyrazol-4-yl)oxazole-4-carboxamide], the EC50 amounted to 143 nM in test [1] (Table 1, IFNγ 50 ng/ml); 143 nM in test [1] (Table 2, IFNγ 50 ng/ml); 34.1 nM in test [2] (Table 1); 34.1 nM in test [2] (Table 2).

Take `O=C(Nc1cn(CCOCC(F)(F)F)nc1-c1ccccn1)c1coc(-c2cn[nH]c2)n1` [Compound I-15, 2-(1H-pyrazol-4-yl)-N-(3-(pyridin-2-yl)-1-(2-(2,2,2-trifluoroethoxy)ethyl)-1H-pyrazol-4-yl)oxazole-4-carboxamide]: the EC50 in test [1] (Table 1, IFNγ 50 ng/ml) was determined as 451 nM; in test [2] (Homo sapiens, Table 1), 85.3 nM.

With `CCO[C@H]1CC[C@H](n2cc(NC(=O)c3coc(-c4cnn(COP(=O)(O)O)c4)n3)c(-c3cnccn3)n2)CC1` [Compound I-17, (4-(4-((1-((1r,4r)-4-ethoxycyclohexyl)-3-(pyrazin-2-yl)-1H-pyrazol-4-yl)carbamoyl)oxazol-2-yl)-1H-pyrazol-1-yl)methyl dihydrogen phosphate], the EC50 in test [1] (Table 1, IFNγ 50 ng/ml) stood at 15.6 nM; in test [1] (Table 2, IFNγ 50 ng/ml) it was 15.6 nM; in test [2] (Table 1), 60.3 nM; in test [2] (Table 2), 60.3 nM.

In the case of `CCOC1CCC(n2cc(NC(=O)c3coc(-c4cnn(COP(=O)(O)O)c4)n3)c(-c3cnccn3)n2)CC1` (stereo not shown) [Compound I-18, sodium (4-(4-((1-((1r,4r)-4-ethoxycyclohexyl)-3-(pyrazin-2-yl)-1H-pyrazol-4-yl)carbamoyl)oxazol-2-yl)-1H-pyrazol-1-yl)methyl phosphate], the EC50 in test [1] (Table 1, IFNγ 50 ng/ml) was 25.6 nM; in test [1] (Table 2, IFNγ 50 ng/ml) it was 25.6 nM; in test [2] (Table 1), 83.3 nM; in test [2] (Table 2), 83.3 nM.
